Reference: article PMC10599993, “The PTPN2/PTPN1 inhibitor ABBV-CLS-484 unleashes potent anti-tumour immunity” (Nature, 2023)

Experiments:
LTK = LTK (Homo sapiens, UniProt P29376); test: biochemical; design: Kinase selectivity panel, IC50 of AC484 (Supplementary Table 1)
Description: (§1) Wide-range phosphatase, kinase and preclinical safety pharmacology off-target activity screens were conducted at Eurofins (Extended Data Table 5 and Supplementary Tables 1 and 2). A small phosphatase panel was developed at AbbVie to assess IC50 values on select phosphatases. The following enzymes used in the phosphatase selectivity panel were purchased from Eurofins: PTPN1 (PTP1B; 14–621), PTPN2 (TC-PTP; 14–646), PTPN9 (14–592), SHP1 (14–591) and SHP2 (14–622). The catalytic activity of the phosphatase was monitored using the small-molecule substrate DiFMUP (ThermoFisher) in a fluorescence assay format. In brief, the phosphatase reactions were performed at room temperature in the following assay buffer: 50 mM HEPES, pH 7.2, 100 mM NaCl, 1 mM EDTA, 0.005% Tween-20 and 5 mM TCEP. Each phosphatase was incubated with increasing concentrations of AC484 for 5 min, after which the substrate DiFMUP was added and incubated at 25 °C for 30 min. The final concentration of the enzyme and substrate was maintained at 0.5 nM and 5 μM, respectively, in all the assays. The reaction was then quenched by the addition of a 100 μM solution of bpV(Phen) (Enzo Life Sciences). The fluorescence signal was monitored using an Envision microplate reader (Perkin-Elmer) using excitation and emission wavelengths of 340 nm and 450 nm, respectively. The dose–response curves for the inhibitors were analysed using normalized IC50 regression curve fitting with control-based normalization. Supplementary file 41586_2023_6575_MOESM3_ESM.xlsx: Supplementary Table 1 AC484 kinase selectivity screen.

PKAc beta = target: T1, PKAc beta (Homo sapiens, UniProt P22694); test: biochemical; design: Kinase selectivity panel, IC50 of AC484 (Supplementary Table 1)
T1 construct: gene PRKACB
Description: as §1

PKA = target: T2, PKA (Homo sapiens, UniProt P17612); test: biochemical; design: Kinase selectivity panel, IC50 of AC484 (Supplementary Table 1)
T2 construct: gene PRKACA
Description: as §1

TNK2 = TNK2 (Homo sapiens, UniProt Q07912); test: biochemical; design: Kinase selectivity panel, IC50 of AC484 (Supplementary Table 1)
Description: as §1

Prkcn = target: T3, Prkcn (Homo sapiens, UniProt O94806); test: biochemical; design: Kinase selectivity panel, IC50 of AC484 (Supplementary Table 1)
T3 construct: gene PRKD3
Description: as §1

Abl = target: T4, Abl (Homo sapiens, UniProt P00519); test: biochemical; design: Kinase selectivity panel, IC50 of AC484 (Supplementary Table 1)
T4 construct: gene ABL1
Description: as §1

EGFR = EGFR (Homo sapiens, UniProt P00533); test: biochemical; design: Kinase selectivity panel, IC50 of AC484 (Supplementary Table 1)
Description: as §1

PKCdelta = target: T5, PKCdelta (Homo sapiens, UniProt Q05655); test: biochemical; design: Kinase selectivity panel, IC50 of AC484 (Supplementary Table 1)
T5 construct: gene PRKCD
Description: as §1

STK33 = STK33 (Homo sapiens, UniProt Q9BYT3); test: biochemical; design: Kinase selectivity panel, IC50 of AC484 (Supplementary Table 1)
Description: as §1

Gsk3b = Gsk3b (Homo sapiens, UniProt P49841); test: biochemical; design: Kinase selectivity panel, IC50 of AC484 (Supplementary Table 1)
Description: as §1

Wee1 = Wee1 (Homo sapiens, UniProt P30291); test: biochemical; design: Kinase selectivity panel, IC50 of AC484 (Supplementary Table 1)
Description: as §1

Nek2 = Nek2 (Homo sapiens, UniProt P51955); test: biochemical; design: Kinase selectivity panel, IC50 of AC484 (Supplementary Table 1)
Description: as §1

Flt1 = Flt1 (Homo sapiens, UniProt P17948); test: biochemical; design: Kinase selectivity panel, IC50 of AC484 (Supplementary Table 1)
Description: as §1

BTK = BTK (Homo sapiens, UniProt Q06187); test: biochemical; design: Kinase selectivity panel, IC50 of AC484 (Supplementary Table 1)
Description: as §1

SIK1 = SIK1 (Homo sapiens, UniProt P57059); test: biochemical; design: Kinase selectivity panel, IC50 of AC484 (Supplementary Table 1)
Description: as §1

Plk4 = Plk4 (Homo sapiens, UniProt O00444); test: biochemical; design: Kinase selectivity panel, IC50 of AC484 (Supplementary Table 1)
Description: as §1

PTPN1 = target: T6, PTPN1 (Homo sapiens, UniProt P18031); test: mobility shift enzyme assay with labelled insulin receptor phosphopeptide (crystal with PTPN1 mentioned, data not shown); assay type: biochemical
T6 construct: full-length recombinant

Zap70 = Zap70 (Homo sapiens, UniProt P43403); test: biochemical; design: Kinase selectivity panel, IC50 of AC484 (Supplementary Table 1)
TrkC = target: T7, TrkC (Homo sapiens, UniProt Q16288); test: biochemical; design: Kinase selectivity panel, IC50 of AC484 (Supplementary Table 1)
T7 construct: gene NTRK3

RET = RET (Homo sapiens, UniProt P07949); test: biochemical; design: Kinase selectivity panel, IC50 of AC484 (Supplementary Table 1)
Syk = Syk (Homo sapiens, UniProt P43405); test: biochemical; design: Kinase selectivity panel, IC50 of AC484 (Supplementary Table 1)
ITK = ITK (Homo sapiens, UniProt Q08881); test: biochemical; design: Kinase selectivity panel, IC50 of AC484 (Supplementary Table 1)
CDK8/Cyclin C = CDK8/Cyclin C (Homo sapiens, UniProt P49336); test: biochemical; design: Kinase selectivity panel, IC50 of AC484 (Supplementary Table 1)

Chain of LTK (P29376 whole entry): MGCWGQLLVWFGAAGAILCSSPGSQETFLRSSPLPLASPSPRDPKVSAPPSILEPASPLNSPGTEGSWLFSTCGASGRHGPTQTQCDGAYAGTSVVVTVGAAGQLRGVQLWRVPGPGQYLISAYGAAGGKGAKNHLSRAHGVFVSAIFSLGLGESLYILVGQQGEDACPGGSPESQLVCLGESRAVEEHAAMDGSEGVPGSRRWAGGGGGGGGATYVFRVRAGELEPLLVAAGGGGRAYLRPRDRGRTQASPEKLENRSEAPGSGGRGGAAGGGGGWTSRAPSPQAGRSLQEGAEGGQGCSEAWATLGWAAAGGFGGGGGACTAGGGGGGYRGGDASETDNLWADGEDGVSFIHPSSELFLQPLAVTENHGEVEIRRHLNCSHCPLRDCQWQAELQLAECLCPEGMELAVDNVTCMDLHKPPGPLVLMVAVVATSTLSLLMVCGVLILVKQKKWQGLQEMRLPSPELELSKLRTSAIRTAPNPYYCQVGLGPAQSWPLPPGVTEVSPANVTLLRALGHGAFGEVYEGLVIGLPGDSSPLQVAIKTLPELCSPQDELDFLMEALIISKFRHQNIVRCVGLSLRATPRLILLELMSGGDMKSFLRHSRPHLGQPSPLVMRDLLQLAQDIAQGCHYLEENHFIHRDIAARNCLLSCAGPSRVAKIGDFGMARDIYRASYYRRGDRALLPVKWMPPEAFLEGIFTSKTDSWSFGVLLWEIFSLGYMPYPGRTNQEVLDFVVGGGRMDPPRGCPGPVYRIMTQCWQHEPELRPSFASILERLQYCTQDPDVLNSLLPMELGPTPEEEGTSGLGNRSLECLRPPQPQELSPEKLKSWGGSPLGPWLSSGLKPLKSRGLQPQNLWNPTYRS
Chain of Zap70 (P43403 whole entry): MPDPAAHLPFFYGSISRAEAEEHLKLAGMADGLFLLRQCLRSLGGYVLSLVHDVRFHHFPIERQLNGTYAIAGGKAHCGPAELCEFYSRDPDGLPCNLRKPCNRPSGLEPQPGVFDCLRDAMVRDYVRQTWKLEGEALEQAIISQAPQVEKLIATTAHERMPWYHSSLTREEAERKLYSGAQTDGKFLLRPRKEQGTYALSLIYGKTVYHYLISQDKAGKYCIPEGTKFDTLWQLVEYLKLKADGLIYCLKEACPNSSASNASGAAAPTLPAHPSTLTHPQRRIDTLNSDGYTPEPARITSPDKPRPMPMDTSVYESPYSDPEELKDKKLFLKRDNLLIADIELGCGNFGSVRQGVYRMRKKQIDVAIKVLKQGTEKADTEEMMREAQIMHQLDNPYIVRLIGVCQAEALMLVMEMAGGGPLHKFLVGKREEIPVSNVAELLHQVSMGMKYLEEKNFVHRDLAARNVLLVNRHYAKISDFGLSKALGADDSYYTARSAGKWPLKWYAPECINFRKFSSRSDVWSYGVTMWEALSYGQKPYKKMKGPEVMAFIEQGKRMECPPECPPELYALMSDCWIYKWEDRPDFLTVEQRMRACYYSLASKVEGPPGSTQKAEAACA
T5 sequence (Q05655 whole entry): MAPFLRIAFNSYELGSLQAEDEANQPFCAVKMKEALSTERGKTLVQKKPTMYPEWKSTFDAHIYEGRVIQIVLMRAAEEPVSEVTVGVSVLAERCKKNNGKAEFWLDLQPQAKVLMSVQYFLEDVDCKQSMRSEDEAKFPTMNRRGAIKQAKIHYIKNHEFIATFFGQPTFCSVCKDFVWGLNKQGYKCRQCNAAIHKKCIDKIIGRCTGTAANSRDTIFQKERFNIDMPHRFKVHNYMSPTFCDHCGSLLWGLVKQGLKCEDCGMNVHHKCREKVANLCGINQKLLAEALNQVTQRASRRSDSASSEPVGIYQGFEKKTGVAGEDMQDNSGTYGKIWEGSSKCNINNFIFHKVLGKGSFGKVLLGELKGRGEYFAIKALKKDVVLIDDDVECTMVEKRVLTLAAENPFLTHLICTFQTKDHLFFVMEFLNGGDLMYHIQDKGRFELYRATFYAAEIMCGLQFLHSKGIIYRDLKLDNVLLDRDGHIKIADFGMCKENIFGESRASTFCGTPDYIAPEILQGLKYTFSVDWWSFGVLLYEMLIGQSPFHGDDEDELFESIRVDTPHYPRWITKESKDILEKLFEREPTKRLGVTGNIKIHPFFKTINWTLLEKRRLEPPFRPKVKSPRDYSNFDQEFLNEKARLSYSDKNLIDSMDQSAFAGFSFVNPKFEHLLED
T3 sequence (O94806 whole entry): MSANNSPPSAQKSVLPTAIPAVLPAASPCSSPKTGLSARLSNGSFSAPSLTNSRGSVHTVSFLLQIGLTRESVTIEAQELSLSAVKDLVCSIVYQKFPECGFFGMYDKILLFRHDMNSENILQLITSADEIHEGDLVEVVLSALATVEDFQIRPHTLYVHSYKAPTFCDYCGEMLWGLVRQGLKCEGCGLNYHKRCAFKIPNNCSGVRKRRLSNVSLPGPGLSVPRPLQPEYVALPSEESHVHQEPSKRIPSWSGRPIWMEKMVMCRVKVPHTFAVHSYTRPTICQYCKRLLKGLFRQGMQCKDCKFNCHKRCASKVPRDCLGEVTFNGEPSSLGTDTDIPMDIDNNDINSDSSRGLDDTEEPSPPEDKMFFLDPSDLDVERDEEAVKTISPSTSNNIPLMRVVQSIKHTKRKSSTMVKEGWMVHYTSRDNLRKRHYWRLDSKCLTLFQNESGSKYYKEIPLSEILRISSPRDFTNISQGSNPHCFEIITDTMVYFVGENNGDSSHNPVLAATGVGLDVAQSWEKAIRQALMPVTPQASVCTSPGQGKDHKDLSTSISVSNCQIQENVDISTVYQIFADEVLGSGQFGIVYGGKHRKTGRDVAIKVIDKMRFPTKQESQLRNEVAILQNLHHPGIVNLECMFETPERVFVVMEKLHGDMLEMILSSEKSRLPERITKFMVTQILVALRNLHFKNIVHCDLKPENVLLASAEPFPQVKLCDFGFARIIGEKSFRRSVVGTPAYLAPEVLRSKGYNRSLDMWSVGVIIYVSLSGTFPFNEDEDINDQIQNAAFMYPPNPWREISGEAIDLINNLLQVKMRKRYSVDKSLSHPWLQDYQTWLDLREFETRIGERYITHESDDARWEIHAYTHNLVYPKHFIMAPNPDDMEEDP
T4 sequence (P00519 whole entry): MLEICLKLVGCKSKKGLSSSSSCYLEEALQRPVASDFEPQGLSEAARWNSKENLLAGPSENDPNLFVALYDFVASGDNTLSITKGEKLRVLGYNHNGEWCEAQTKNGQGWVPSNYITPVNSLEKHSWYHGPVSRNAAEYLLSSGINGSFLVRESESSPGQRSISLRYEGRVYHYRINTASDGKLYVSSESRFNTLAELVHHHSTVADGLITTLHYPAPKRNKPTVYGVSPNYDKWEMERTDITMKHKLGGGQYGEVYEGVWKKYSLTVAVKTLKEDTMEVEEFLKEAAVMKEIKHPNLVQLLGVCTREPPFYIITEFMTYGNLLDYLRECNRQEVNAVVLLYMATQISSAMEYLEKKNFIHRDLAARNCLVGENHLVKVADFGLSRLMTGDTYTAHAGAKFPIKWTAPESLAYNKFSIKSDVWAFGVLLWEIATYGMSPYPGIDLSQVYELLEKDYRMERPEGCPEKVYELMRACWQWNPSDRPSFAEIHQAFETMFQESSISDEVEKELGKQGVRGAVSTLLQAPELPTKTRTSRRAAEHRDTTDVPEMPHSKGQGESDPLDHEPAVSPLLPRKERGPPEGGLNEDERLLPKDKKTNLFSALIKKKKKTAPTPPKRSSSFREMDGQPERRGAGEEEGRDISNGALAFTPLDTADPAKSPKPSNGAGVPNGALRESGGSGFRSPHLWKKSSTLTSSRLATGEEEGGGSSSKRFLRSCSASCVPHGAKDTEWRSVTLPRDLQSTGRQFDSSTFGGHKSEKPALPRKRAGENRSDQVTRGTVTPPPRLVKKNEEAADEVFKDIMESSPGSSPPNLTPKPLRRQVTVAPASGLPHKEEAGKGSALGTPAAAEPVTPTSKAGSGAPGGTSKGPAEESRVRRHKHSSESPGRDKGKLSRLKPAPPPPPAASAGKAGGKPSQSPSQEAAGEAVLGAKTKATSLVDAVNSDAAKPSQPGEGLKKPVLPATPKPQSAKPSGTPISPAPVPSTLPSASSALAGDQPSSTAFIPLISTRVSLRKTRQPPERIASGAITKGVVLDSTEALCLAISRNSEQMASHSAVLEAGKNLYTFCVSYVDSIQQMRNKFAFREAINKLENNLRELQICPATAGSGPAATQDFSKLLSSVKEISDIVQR
Chain of Nek2 (P51955 whole entry): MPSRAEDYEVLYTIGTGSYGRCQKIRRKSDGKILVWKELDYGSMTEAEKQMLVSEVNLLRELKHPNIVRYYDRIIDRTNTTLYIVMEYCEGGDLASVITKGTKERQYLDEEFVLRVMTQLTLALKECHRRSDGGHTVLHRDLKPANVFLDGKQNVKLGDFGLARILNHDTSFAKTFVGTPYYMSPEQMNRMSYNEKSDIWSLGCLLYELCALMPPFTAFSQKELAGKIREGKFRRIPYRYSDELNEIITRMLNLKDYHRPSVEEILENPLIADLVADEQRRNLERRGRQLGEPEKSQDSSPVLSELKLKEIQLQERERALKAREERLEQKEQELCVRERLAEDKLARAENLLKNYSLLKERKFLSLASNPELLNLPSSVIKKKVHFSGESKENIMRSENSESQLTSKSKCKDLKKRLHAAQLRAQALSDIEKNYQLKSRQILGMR
T6 sequence (P18031 whole entry): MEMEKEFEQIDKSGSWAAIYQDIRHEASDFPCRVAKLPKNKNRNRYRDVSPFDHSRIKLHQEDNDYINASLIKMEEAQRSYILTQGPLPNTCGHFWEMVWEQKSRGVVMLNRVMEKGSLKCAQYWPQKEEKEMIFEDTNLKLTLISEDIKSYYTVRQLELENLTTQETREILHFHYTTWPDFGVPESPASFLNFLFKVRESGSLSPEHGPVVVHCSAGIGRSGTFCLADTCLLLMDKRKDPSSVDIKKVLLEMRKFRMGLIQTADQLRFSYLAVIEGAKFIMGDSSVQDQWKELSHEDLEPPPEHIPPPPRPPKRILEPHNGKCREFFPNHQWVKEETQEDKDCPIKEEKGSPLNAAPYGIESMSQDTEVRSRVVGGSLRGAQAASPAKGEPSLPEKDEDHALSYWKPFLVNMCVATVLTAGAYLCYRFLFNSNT

CC(C)CCN[C@@H]1CCc2cc(O)c(N3CC(=O)NS3(=O)=O)c(F)c2C1 [AC484, ABBV-CLS-484]
IC50 (LTK): > 10 µM
IC50 (PKAc beta): > 10 µM
IC50 (PKA): > 10 µM
IC50 (TNK2): > 10 µM
IC50 (Prkcn): > 10 µM
IC50 (Abl): > 10 µM
IC50 (EGFR): > 10 µM
IC50 (PKCdelta): > 10 µM
IC50 (STK33): > 10 µM
IC50 (Gsk3b): > 10 µM
IC50 (Wee1): > 10 µM
IC50 (Nek2): > 10 µM
IC50 (Flt1): > 10 µM
IC50 (BTK): > 10 µM
IC50 (SIK1): > 10 µM
IC50 (Plk4): > 10 µM
IC50 (PTPN1): 0.0025 µM
IC50 (Zap70): > 10 µM
IC50 (TrkC): > 10 µM
IC50 (RET): > 10 µM
IC50 (Syk): > 10 µM
IC50 (ITK): > 10 µM
IC50 (CDK8/Cyclin C): > 10 µM
